Assay [1] deals with cAMP-dependent protein kinase catalytic subunit alpha (Bos taurus, UniProt P00517). The assay can be described thus: Kinase Inhibition Assay. Particulars: 25 °C. How it is done:
(§1) In vitro kinase assay using purified enzyme, was incubated at room temperature with substrate, and test compounds in the presence of ATP/[gamma-33P]ATP. 33P incorporation was measured with a Top Count (Packard). IC50 is the inhibitor concentration which inhibits 50% of kinase activity that catalyzes the transfer of the terminal phosphate from 33P labeled ATP to the substrate.

For assay [2], the target named is Calcium/calmodulin-dependent protein kinase type II subunit alpha (Rattus norvegicus, UniProt P11275). The assay can be described thus: Kinase Inhibition Assay. To be noted: 25 °C. The protocol: as §1
Sequence of Calcium/calmodulin-dependent protein kinase type II subunit alpha (P11275 whole entry): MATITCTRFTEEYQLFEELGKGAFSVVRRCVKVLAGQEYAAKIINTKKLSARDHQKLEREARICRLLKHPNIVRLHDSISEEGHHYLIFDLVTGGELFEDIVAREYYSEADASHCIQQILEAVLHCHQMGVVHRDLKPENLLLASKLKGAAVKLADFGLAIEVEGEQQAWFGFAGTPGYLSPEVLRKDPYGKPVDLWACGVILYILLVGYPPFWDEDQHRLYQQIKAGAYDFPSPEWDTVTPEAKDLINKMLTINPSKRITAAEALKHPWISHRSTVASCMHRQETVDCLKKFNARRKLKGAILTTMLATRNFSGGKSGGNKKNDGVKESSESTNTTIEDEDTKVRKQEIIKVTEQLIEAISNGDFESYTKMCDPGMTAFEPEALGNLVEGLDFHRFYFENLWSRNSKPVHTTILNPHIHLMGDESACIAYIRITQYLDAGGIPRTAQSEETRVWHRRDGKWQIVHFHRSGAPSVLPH

Consider `O=C1NC(=O)c2c1c1c3ccccc3[nH]c1c1[nH]c3c(Br)cccc3c21` [5-bromo-3,13,23-triazahexacyclo[14.7.0.0^{2,10}.0^{4,9}.0^{11,15}.0^{17,22}]tricosa-1(16),2(10),4(9),5,7,11(15),17(22),18,20-nonaene-12,14-dione], for which the IC50 (commonly the concentration that inhibits the measured activity by half) in assay [1] is > 20000 nM. Take `O=C1NC(=O)c2c1c1c3ccccc3[nH]c1c1[nH]c3ccccc3c21` [6,7,12,13-Tetrahydro-5,7-dioxo-5H-indolo[2,3-a]pyrrolo[3,4-c]carbazole]: the 50% inhibitory concentration (IC50) in assay [1] is > 2000 nM. For the molecule `O=C1NC(=O)c2c1c1c3ccccc3[nH]c1c1[nH]c3cc(C(F)(F)F)ccc3c21` [6-(trifluoromethyl)-3,13,23-triazahexacyclo[14.7.0.0^{2,10}.0^{4,9}.0^{11,15}.0^{17,22}]tricosa-1(16),2(10),4(9),5,7,11(15),17(22),18,20-nonaene-12,14-dione], the IC50 in assay [2] and in assay [1] was > 2000 nM in each case. For the molecule `O=C1NC(=O)c2c1c1c3ccccc3[nH]c1c1[nH]c3cc(Br)ccc3c21` [6-bromo-3,13,23-triazahexacyclo[14.7.0.0^{2,10}.0^{4,9}.0^{11,15}.0^{17,22}]tricosa-1(16),2(10),4(9),5,7,11(15),17(22),18,20-nonaene-12,14-dione], the 50% effective concentration (EC50) (commonly the concentration giving half of the maximal effect) in assay [2] was 70 nM. For the same molecule, the IC50 in assay [1] is > 20000 nM. Turning to `COc1ccc2c(c1)[nH]c1c3[nH]c4cc(Br)ccc4c3c3c(c21)C(=O)NC3=O` [6-bromo-20-methoxy-3,13,23-triazahexacyclo[14.7.0.0^{2,10}.0^{4,9}.0^{11,15}.0^{17,22}]tricosa-1(16),2(10),4(9),5,7,11(15),17(22),18,20-nonaene-12,14-dione], the half-maximal inhibitory concentration (IC50) in assay [2] and in assay [1] was > 2000 nM each time.

`O=C1NC(=O)c2c1c1c3ccccc3[nH]c1c1[nH]c3cc(Cl)ccc3c21` [6-chloro-3,13,23-triazahexacyclo[14.7.0.0^{2,10}.0^{4,9}.0^{11,15}.0^{17,22}]tricosa-1(16),2(10),4(9),5,7,11(15),17(22),18,20-nonaene-12,14-dione]: in assay [1], the IC50 is > 2000 nM. With `O=C1NC(=O)c2c1c1c3ccccc3[nH]c1c1[nH]c3cc(F)ccc3c21` [6-fluoro-3,13,23-triazahexacyclo[14.7.0.0^{2,10}.0^{4,9}.0^{11,15}.0^{17,22}]tricosa-1(16),2(10),4(9),5,7,11(15),17(22),18,20-nonaene-12,14-dione], the EC50 in assay [2] is 40 nM. In addition, in assay [1], the IC50 is > 2000 nM. For the molecule `COc1ccc2c(c1)[nH]c1c3[nH]c4ccccc4c3c3c(c21)C(=O)NC3=O` [6-methoxy-3,13,23-triazahexacyclo[14.7.0.0^{2,10}.0^{4,9}.0^{11,15}.0^{17,22}]tricosa-1(16),2(10),4(9),5,7,11(15),17(22),18,20-nonaene-12,14-dione], the 50% inhibitory concentration (IC50) in assay [1] was > 2000 nM. Regarding `Cc1ccc2c(c1)[nH]c1c3[nH]c4ccccc4c3c3c(c21)C(=O)NC3=O` [6-methyl-3,13,23-triazahexacyclo[14.7.0.0^{2,10}.0^{4,9}.0^{11,15}.0^{17,22}]tricosa-1(16),2(10),4(9),5,7,11(15),17(22),18,20-nonaene-12,14-dione], the concentration for half-maximal inhibition (IC50) in assay [1] is > 2000 nM. Consider `O=C1NC(=O)c2c1c1c3ccccc3[nH]c1c1[nH]c3ccc(Br)cc3c21` [7-bromo-3,13,23-triazahexacyclo[14.7.0.0^{2,10}.0^{4,9}.0^{11,15}.0^{17,22}]tricosa-1(16),2(10),4(9),5,7,11(15),17(22),18,20-nonaene-12,14-dione], for which, in assay [2], the concentration giving a half-maximal response (EC50) stood at 70 nM and the half-inhibitory concentration (IC50) was < 1250 nM. In addition, the IC50 in assay [1] is > 20000 nM. For `Cn1c2ccccc2c2c3c(c4c5ccc(Br)cc5[nH]c4c21)C(=O)NC3=O` [indolocarbazole deriv. 4(f)], the EC50 in assay [2] was determined as 80 nM. Also, the IC50 in assay [1] is > 2000 nM. Consider `Cn1c2ccccc2c2c3c(c4c5ccc(F)cc5[nH]c4c21)C(=O)NC3=O` [indolocarbazole deriv. 4(h)], for which the concentration for half-maximal inhibition (IC50) in assay [2] and in assay [1] was > 2000 nM in each case.

Values taken from BindingDB's records for doi:10.1021/jm0256169 (Eli Lilly, 2003).
